Measurements reported in patent US20040023953A1, “Tricylic mercaptomethyl-substituted 2,3-dihydro-quinazolin-5-ones and 2,3-dihydro-benzo-[1,2,4]-thiadiazin-5,5-dioxides as matrix metalloproteinase (MMP) inhibitors” (priority 2000, published 2004).

Columns and labels:
Type in all cases: biochemical
[1] = molecular target: T1, MT1-MMP (recombinant catalytic domain of MMP-14) (Homo sapiens, UniProt P50281); assay: Quantitative fluorescence assay, inhibition of MT1-MMP; conditions: for Ki: DIXON method
T1 construct: recombinant catalytic domain of MMP-14
Source text: In particular when used as medicaments, specific inhibitors would only influence the desired target enzymes but not disturb the balanced interplay of the other MMPs, thus helping to avoid possible undesired side-effects.
(§1) Quantitative Fluorescence Assay for Matrix Metalloproteinases
(§2) The fluorescent group Mca is separated from the internal quencher Dpa by enzymatic cleavage of the synthetic substrate Mca-Pro-Leu-Gly-Leu-Dpa-Ala-Arg-NH2 using the respective collagenase. This is accompanied by a great increase in fluorescence in the measuring batch, which can be quantified using a fluorimeter (λex 328 nm, λem 393 nm) and proceeds linearly within the first few minutes. A certain specificity of the test to matrix metalloproteinases follows from the amino acid sequence-Pro-Leu-Gly-Leu-in the substrate, on the one hand, and from the select incubation conditions, on the other hand. Matrix metalloproteinases cleave the substrate at the Gly-Leu bond. The proteolytic residual activity of pre-incubated batches of enzyme and inhibitor is measured, the substrate and enzyme concentrations having been kept constant and the inhibitor concentration having been varied. Three series of measurements using a different substrate concentration were made for each tested inhibitor. The enzyme activity is calculated in fluorescence units per min. on the basis of the time-sensitive fluorescence increase. The Ki values were determined graphically according to the DIXON method (1953) by applying the reciprocal reaction rate 1/v (y axis) against inhibitor concentration (x axis).
(§3) Inhibition of human MMPs by the inhibitors of general formulae Ia and Ib according to the invention

[2] = molecular target: T2, recombinant catalytic domain of MMP-8 (Homo sapiens, UniProt P22894); assay: Quantitative fluorescence assay, inhibition of catalytic domain of MMP-8; conditions: for MMP-8 inhibition with 10 μM: 10 μM inhibitor, no explicit Ki value since the dixon plot is non-linear
T2 construct: instead of the whole enzyme only its enzymatically active catalytic domain was cloned into E. coli; made in house; host or cells: E. coli
Source text: Cloning and Expression of the Catalytic MMP-8 Domain
The catalytic MMP-8 domain was used as another test enzyme because it has a high degree of stability and is also available as an active enzyme and therefore needs not be activated, which is in consideration as one of the most frequent causes of error since the mercury compounds used for the activation often interfere with the test system and/or the enzyme and in this way can falsify the measuring results. The cloning strategy was directed towards the circumstance that instead of the whole enzyme only its enzymatically active catalytic domain was cloned into E. coli.
The cloning and expression of the recombinant catalytic MMP-8 domain was carried out in accordance with the statements made by SCHNIERER et al. (Schnierer S., Kleine T., Gote T., Hillemann A., Knäuper V., Tschesche H.: The recombinant catalytic domain of human neutrophil collagenase lacks type I collagen substrate specificity. Biochem Biophys Res Comm (1993), vol. 191, No. 2, 319-326).
as §1, §2
(§4) 2 μl inhibitor dissolved in DMSO, or DMSO alone (non-inhibitory approach) 4 μl enzyme (MMP-2 or MMP-9 or catalytic domain of MMP-8)
(§5) 5 min. preliminary incubation of the enzyme-inhibitor mixture at room temperature while stirring start of the reaction with 10 μl substrate dissolved in DMSO recording of the time-sensitive fluorescence increase over a period of 2 min.
as §3

MMP-2 (gelatinase) = molecular target: T3, MMP-2 (gelatinase) (Homo sapiens, UniProt P08253); assay: Quantitative fluorescence assay, inhibition of MMP-2; conditions: 10 μM inhibitor; no explicit Ki value since the dixon plot is non-linear
T3 construct: endogenous in cells; host or cells: human dermal fibroblasts (secreted into culture medium)
T3 sequence (P08253 110-660): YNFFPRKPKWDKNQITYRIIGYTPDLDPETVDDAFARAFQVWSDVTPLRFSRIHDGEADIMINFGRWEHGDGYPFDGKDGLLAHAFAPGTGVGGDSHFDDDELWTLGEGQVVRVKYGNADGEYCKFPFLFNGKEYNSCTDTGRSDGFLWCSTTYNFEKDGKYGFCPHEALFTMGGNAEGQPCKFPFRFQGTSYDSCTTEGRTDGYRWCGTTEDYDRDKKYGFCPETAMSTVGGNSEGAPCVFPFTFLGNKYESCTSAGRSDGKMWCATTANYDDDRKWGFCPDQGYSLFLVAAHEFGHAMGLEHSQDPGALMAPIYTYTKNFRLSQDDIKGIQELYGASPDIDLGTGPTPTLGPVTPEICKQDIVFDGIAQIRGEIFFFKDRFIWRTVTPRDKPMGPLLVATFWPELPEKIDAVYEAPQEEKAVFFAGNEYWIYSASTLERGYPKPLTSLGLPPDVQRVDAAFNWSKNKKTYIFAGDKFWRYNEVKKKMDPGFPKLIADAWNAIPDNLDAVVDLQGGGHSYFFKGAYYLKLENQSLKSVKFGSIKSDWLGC
Protocol: Inhibition of the Matrix Metalloproteinase-2 (MMP-2)
MMP-2 (gelatinase) is supplied by cultivated dermal fibroblasts to the culture medium in considerable amounts and is thus easily accessible.
For this purpose, human dermal fibroblasts are obtained according to established standard methods and cultivated and the cell-free culture supernatant is treated with trypsin. Trypsin is then inactivated with a specific inhibitor (TLCK) and active MMP-2 is partially purified by affinity chromatography on gelatin sepharose and subsequent gel filtration on sepharose. MMP-2 was identified and characterized by the availability of a commercial immunoassay.
as §1, §2, §4, §5, §3

MMP-9 = molecular target: T4, MMP-9 (Homo sapiens, UniProt P14780); assay: Quantitative fluorescence assay, inhibition of MMP-9; conditions: for MMP-9 inhibition with 10 μM: 10 μM inhibitor, no explicit Ki value since the dixon plot is non-linear; for Ki: DIXON method
T4 construct: from tissue; host or cells: human buffy coat (blood leukocytes)
Protocol: Preparation of the Human Collagenase MMP-9
Native MMP-9 was obtained reproducibly and with good yield and purity from human Buffy Coat. For this purpose, Buffy Coat is brought to a final concentration of 0,4% using 10% (v/v) triton X-100, shaken on ice for 30 min. and then 1 vol. double binding buffer (40 mM Tris-HCl, pH 7.5, 10 mM CaCl2, 1 M NaCl, 0.2% (v/v) triton X-100) is added and shaking on ice is continued for another 30 min.
The solution is centrifuged off at 16,000 rpm on an SS-34 rotor at 4° C. for 15 min. and filtered on glass wool. The filtrate is batched with gelatin agarose equilibrated with binding buffer and shaken on ice for 1 hour.
The charged gelatin agarose is transferred to a column and rinsed in protein-free manner using at least 10 vol. binding buffer. The bound MMP-9 is eluted with 2 gel volumes binding buffer plus 5% (v/v) DMSO.
For an exchange of buffers and simultaneous separation of minor MMP-2 contaminations the eluate can be separated on sephadex G-75 by means of gel filtration. Buffer I (20 mM Tris-HCl, pH 7.5, 5 mM CaCl2, 100mM NaCl, 0.1% (v/v) triton X-100) is used for this purpose.
The resulting eluate contains MMP-9 in the three known configurations: monomer, homodimer, heterodimer. The purity of the enzyme is about 90%, the rest of the foreign proteins being fibronectin and extremely small amounts of TIMPs.
The latent enzyme is activated by incubation at 37° C. using 1/100 vol. trypsin (10 mg/ml), for 30-60 min. Trypsin is inhibited by adding 1 mM PMSF or with a specific inhibitor (TLCK).
as §1
as §2, with “A certain specificity of the test to matrix metalloproteinases follows from the amino acid sequence-Pro-Leu-Gly-Leu-in the substrate, on the one hand, and from the select incubation conditions, on the other hand. Matrix metalloproteinases cleave the substrate at the Gly-Leu bond.” left out, “Three series of measurements using a different substrate concentration were made for each tested inhibitor.” left out, “axis). […]” for “axis).”
5 min. preliminary incubation of the enzyme-inhibitor mixture at room temperature while stirring start of the reaction with 10 μl substrate dissolved in DMSO recording of the time-sensitive fluorescence increase over a period of 2 min. […]

T4 sequence (P14780 107-707 limits assumed): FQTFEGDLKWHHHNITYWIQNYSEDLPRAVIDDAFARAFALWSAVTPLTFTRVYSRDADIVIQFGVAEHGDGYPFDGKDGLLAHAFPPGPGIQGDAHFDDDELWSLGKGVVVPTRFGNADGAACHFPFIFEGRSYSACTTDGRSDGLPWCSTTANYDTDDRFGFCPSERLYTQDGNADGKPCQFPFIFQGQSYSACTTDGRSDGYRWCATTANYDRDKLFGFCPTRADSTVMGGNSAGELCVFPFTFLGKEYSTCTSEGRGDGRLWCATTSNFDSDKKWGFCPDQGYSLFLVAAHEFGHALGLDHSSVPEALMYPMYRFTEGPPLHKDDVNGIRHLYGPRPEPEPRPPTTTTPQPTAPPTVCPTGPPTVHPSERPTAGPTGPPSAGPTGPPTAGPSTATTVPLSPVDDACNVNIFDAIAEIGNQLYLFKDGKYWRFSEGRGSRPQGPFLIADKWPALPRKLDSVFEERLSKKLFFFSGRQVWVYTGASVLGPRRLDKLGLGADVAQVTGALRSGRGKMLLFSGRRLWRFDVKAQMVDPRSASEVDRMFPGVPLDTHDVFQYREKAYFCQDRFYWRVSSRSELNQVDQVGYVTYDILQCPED
T2 sequence (P22894 100-262 limits assumed): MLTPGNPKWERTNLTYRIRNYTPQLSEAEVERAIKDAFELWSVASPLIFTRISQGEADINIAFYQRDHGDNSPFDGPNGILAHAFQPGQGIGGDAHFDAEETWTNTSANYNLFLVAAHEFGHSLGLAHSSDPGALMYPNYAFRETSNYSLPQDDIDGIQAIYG

Compound | MT1-MMP inhibition with 10 μM ([1]; 10 μM inhibitor, no explicit Ki value since the dixon plot is non-linear) | MMP-8 inhibition with 10 μM [2] | MMP-2 inhibition with 10 μM (MMP-2 (gelatinase)) | MMP-9 inhibition with 10 μM (MMP-9) | Ki [1] | Ki ([2]; DIXON method) | Ki (MMP-9) | MT1-MMP inhibition with 2.5 μM ([1]; 2.5 μM inhibitor, no explicit Ki value since the dixon plot is non-linear)
O=C(O)c1ccc2c(=O)n3c(nc2c1)S[C@@H](CS)C3 (racemic) [Example 3, (R,S)-8-carboxy-2-mercaptomethyl-2,3-dihydro-5H-thiazolo [2,3-b]quinazoline-5-one] |  |  | 25% |  | 21 µM | 24 µM | 15 µM | 
O=c1c2ccccc2nc2n1C[C@H](CS)S2 (racemic) [Example 1, (R,S)-2-Mercaptomethyl-2,3-dihydro-5H-thiazolo(2,3-b]-quinazoline-5-one] |  | 80% | 70% |  |  |  |  | 50% inhi-
C[C@]1(CS)Cn2c(nc3ccccc3c2=O)S1 (racemic) [Example 2, (R,S)-2-mercaptomethyl-2-methyl-2,3-dihydro-5H-thiazolo[2,3-b]quinazoline-5-one] |  | 85% | 50% |  | 4 µM |  | 1 µM | 

The next lines start with results.

MT1-MMP inhibition with 10 μM ([1]; 10 μM inhibitor, no explicit Ki value since the dixon plot is non-linear) | MMP-8 inhibition with 10 μM [2] | MMP-2 inhibition with 10 μM (MMP-2 (gelatinase)) | MMP-9 inhibition with 10 μM (MMP-9) | Ki [1] | Ki ([2]; DIXON method) | Ki (MMP-9) | Compound | MT1-MMP inhibition with 2.5 μM ([1]; 2.5 μM inhibitor, no explicit Ki value since the dixon plot is non-linear)
85% | 90% | 80% | 85% |  |  |  | O=c1c2ccc(Cl)cc2nc2n1C[C@H](CS)S2 (racemic) [Example 5, (R,S)-8-chloro-2-mercaptomethyl-2,3-dihydro-5H-thiazolo(2,3-b]quinazoline-5-one] | 
 | 25% | 50% | 75% | 55 µM |  |  | O=c1c2ccccc2nc2n1[C@H](CS)CS2 (racemic) [Example 4, (R,S)-3-mercaptomethyl-2,3-dihydro-5H-thiazolo[2,3-b]quinazoline-5-one] | 
